Source: ChEMBL document CHEMBL1201862, “PubChem BioAssay data set” (2004)
Activity calls are given as the source filed them.

Tests used:
[1] = intracellular Trypanosoma cruzi inhibitors in host cells – cell-based, plate reader, cherry-pick samples, set 3, dose response (AID 651818); assay type: functional;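 further: compounds incubated with infected cells for about four days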
[2] = target: T1, Heat shock factor protein 1 (Mus musculus, UniProt P38532); test: HSF1 potentiators in luciferase reporter cells, confirmation, cell-based, NIH3T3, luminescence, dose retest (AID 435004); assay type: functional;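 further: stress induced by proteasome inhibitor MG132 added 30 min after compound; luciferase reporter driven by HSF1 response element in NIH3T3 cells; actives raise luminescence as potentiators of the MG132 stress response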
T1 sequence (P38532 whole entry): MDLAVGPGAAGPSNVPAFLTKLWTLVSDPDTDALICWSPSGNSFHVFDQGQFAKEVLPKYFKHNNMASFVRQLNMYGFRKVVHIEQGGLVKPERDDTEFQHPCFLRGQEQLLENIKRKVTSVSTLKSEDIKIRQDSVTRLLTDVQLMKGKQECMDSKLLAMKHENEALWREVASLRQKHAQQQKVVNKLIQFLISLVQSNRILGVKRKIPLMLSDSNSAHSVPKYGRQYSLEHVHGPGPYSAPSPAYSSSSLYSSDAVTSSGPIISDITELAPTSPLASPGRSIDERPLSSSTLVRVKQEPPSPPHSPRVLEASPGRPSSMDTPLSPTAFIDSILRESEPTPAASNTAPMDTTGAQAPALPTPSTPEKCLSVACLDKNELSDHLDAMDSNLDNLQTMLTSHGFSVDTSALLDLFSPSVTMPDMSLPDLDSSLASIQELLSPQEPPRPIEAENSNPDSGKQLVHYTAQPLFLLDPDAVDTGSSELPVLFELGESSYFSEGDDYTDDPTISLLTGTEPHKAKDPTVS

[3] = target: Dual specificity tyrosine-phosphorylation-regulated kinase 1A (Rattus norvegicus, UniProt Q63470); assay type: biochemical, Homo sapiens
[4] = tested on: P388; test: cells; assay type: functional; settings: Mus musculus
[5] = tested on: SN12K1; test: cells; assay type: functional; settings: Homo sapiens
[6] = tested on: P388/ADR; test: cells; assay type: functional; settings: Mus musculus
[7] = tested on: BJ; test: cells; assay type: functional, cell-based; settings: Homo sapiens
[8] = tested on: BJ; test: cytotoxicity toward BJ-TERT-LT-ST fibroblasts, dose response, cell-based, RAS-independent, luminescence (AID 1935); assay type: functional; settings: Homo sapiens;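 further: BJ fibroblasts immortalized with TERT plus LT and ST oncogenes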
[9] = target: T1, Heat shock factor protein 1; test: inhibition of MG132-induced HSE-luciferase signal, confirmation, cell-based, NIH3T3, luminescence, dose retest (AID 2382); assay type: functional;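 further: NIH3T3 fibroblasts with HSF1-driven luciferase reporter stressed by proteasome inhibitor MG132; luminescence from HSF1-driven luciferase expression after 8 hours of MG132 stress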
[10] = cytotoxicity toward DRD oncogenic fibroblasts, dose response, cell-based, non-viral oncogenic, luminescence (AID 1934); assay type: functional; settings: Homo sapiens
[11] = tested on: BJ; test: cytotoxicity toward BJ-TERT fibroblasts, dose response, cell-based, RAS-independent, luminescence (AID 1933); assay type: functional; settings: Homo sapiens
[12] = cytotoxicity in HEK-293T cells, dose response, cytotoxicity control for TCR NF-kB inhibitor project, luminescence, T-cell screen hits (AID 489026); assay type: functional, cell-based;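 further: cells exposed to compound about 14 hours before the viability readout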
[13] = tested on: Vero; test: cells; assay type: functional; settings: Chlorocebus sabaeus
[14] = target: T2, Rac GTPase-activating protein 1 (Homo sapiens, UniProt Q9H0H5); test: MgcRacGAP GTPase-activating activity inhibitors, confirmation, biochemical, ADP Hunter fluorescence, primary and confirmatory (AID 624330); assay type: functional
T2 sequence (Q9H0H5 whole entry): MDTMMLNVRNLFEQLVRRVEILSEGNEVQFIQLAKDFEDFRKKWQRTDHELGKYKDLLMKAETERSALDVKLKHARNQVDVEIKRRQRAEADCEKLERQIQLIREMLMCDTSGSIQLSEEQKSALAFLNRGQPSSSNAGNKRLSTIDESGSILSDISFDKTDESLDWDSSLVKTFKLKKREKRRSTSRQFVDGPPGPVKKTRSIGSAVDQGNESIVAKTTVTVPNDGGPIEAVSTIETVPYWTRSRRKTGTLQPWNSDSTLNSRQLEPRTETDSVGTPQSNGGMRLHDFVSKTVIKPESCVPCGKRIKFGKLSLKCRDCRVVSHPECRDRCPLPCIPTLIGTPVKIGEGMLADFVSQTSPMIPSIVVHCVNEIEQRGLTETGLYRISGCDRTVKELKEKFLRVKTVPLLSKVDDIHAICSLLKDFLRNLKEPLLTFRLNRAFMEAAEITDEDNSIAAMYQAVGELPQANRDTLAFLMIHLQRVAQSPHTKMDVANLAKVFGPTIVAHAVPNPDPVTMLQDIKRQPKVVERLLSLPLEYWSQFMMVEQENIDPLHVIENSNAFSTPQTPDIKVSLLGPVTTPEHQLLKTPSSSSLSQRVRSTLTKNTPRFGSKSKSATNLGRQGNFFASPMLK

[15] = target: Cytochrome P450 2D6 (Homo sapiens, UniProt P10635);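 further: CYP2D6 member of a cytochrome P450 panel assay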
[16] = target: Cytochrome P450 3A4 (Homo sapiens, UniProt P08684);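 further: CYP3A4 tested as one member of a cytochrome P450 panel screen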
[17] = A cytotoxicity screen of small molecule inhibitors of the PhoP region in Salmonella typhi identified in the primary screen. [Related pubchem assays: 1850, 1864, 1985 ]; assay type: functional
[18] = cells; assay type: functional, cell-based
[19] = cells; assay type: functional, cell-based; remark: listed apart in the source

Cytochrome P450 3A4, sequence (P08684 whole entry): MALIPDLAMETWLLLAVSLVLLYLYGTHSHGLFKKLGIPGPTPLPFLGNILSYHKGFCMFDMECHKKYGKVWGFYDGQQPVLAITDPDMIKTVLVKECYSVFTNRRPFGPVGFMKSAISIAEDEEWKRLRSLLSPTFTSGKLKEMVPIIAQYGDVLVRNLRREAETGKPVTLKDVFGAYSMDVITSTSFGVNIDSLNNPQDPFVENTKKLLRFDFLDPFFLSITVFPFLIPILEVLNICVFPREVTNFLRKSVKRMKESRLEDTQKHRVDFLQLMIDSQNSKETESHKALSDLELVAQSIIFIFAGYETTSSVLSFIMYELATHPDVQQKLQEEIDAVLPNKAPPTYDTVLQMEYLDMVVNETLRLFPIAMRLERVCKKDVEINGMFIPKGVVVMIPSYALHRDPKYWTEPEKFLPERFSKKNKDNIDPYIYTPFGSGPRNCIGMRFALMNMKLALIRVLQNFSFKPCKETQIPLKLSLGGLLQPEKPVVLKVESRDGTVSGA
Cytochrome P450 2D6, sequence (P10635 whole entry): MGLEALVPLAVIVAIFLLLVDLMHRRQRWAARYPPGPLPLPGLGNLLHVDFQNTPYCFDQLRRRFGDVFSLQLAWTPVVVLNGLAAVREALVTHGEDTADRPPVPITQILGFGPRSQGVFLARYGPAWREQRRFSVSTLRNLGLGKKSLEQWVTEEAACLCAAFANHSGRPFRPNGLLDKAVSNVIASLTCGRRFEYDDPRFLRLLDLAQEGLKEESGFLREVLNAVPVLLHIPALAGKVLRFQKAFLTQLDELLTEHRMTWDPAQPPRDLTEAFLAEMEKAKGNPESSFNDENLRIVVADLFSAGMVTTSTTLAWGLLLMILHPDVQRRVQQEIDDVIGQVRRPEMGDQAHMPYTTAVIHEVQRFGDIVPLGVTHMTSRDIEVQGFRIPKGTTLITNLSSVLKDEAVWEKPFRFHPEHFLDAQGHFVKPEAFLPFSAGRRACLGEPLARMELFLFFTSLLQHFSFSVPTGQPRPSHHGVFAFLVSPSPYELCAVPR

In the case of `COc1ccc(S(=O)(=O)Nc2ccc3c(c2)CC(=O)N([C@H](C)CO)C[C@@H](C)[C@@H](CN(C)S(=O)(=O)c2ccc(F)cc2)O3)cc1`, the AC50 [1] is reported as 2.24 µM (active).
In the case of `Cc1noc(NS(=O)(=O)c2ccc(NC(=O)c3oc4ccc(F)cc4c3C)cc2)c1C`, the EC50 [2] is reported as > 260 µM (inactive) and the AC50 [3] is reported as 9.87 µM (active).
With `CC1=CC2=C(C=O)C(=O)[C@](C)(O)[C@@H](O)C2=CO1` the GI50 [4] was 15 µM (inactive), the GI50 [5] was 30.4 µM (inactive) and the GI50 [6] was 14.5 µM (inactive).
In the case of `Cc1ccc(C(=O)Nc2cc3ccccc3oc2=O)cc1`, the EC50 [7] is reported as 9.35 µM (active), the EC50 [8] is reported as 24 µM (active) and the EC50 [9] is reported as 0.21 µM (active). For the same compound, the EC50 [10] was 6.97 µM (active), the EC50 [11] was 18.4 µM (active) and the IC50 [12] was > 80 µM (inactive).
In the case of `Fc1ccc(C2Nc3cccc4cccc(c34)N2)cc1`, the AC50 [3] is reported as 16.4 µM (active).
For `C[C@@H]1CN([C@@H](C)CO)C(=O)Cc2cc(NC(=O)Nc3ccc(F)cc3)ccc2O[C@@H]1CN(C)Cc1ccc(Cl)c(Cl)c1`, the AC50 [1] was 3.42 µM (active).
For `COc1ccccc1N1CCN(C(=O)c2ccc(-c3ccc(Cl)cc3)o2)CC1`, the IC50 [12] was 72.7 µM (inactive).
For `COc1ccc(OC)c(/C=C2\SC(=S)N(Cc3cccnc3)C2=O)c1`, the CC50 [13] was 14.8 µM (active).
With `O=C1SC(c2ccccc2)=C/C1=C\N1CCCCC1` the IC50 [14] was 45.9 µM (active), the AC50 [3] was 2.83 µM (active) and the AC50 [15] was 25.1 µM (inconclusive). For the same compound, the AC50 [16] was 25.1 µM (inconclusive) and the EC50 [17] was > 50 µM (active).
For `COc1cc(C2C(=O)c3ccccc3C2=O)ccc1O`, the IC50 [14] was 16.1 µM (active) and the AC50 [3] was 3.44 µM (active).
In the case of `C[C@H](CO)N1C[C@H](C)[C@@H](CN(C)S(=O)(=O)c2ccc(Cl)cc2)Oc2c(NC(=O)c3nc4ccccc4s3)cccc2C1=O`, the AC50 [1] is reported as 1.73 µM (active).
In the case of `O=C1C=C2SC3C[C@@]24CC1(O)[N+]1=c2c4c(c(O)c4c2=C(C=N4)CC1)N3`, the GI50 [4] is reported as 0.869 µM (active), the GI50 [5] is reported as 1.29 µM (inactive) and the GI50 [6] is reported as 1.3 µM (inactive).
With `CCOC(=O)C1=C(c2ccccc2)NC(=O)NC1c1ccc(O)c(Cl)c1` (stereo not given) the CC50 [13] was 22.5 µM (active), the EC50 [18] was > 350 µM (not active) and the EC50 [19] was > 350 µM (not active).
